The numbers were not newly measured in paper PMC5548886 (Cancer Medicine, 2017), which cites them from elsewhere.

For one data set, the system named is pERK. Details: method as in PMID 20823850. The note with it: at the recommended phase II dose; cited from earlier work.
Data set [1] concerns advanced or metastatic melanoma. The note with it: phase II trial; cited from earlier work.

For the compound `CCCS(=O)(=O)Nc1ccc(F)c(C(=O)c2c[nH]c3ncc(-c4ccc(Cl)cc4)cc23)c1F` [vemurafenib], the pERK suppression result in the data set with pERK is given as “over 80%”. As to `CNC(=O)c1ccccc1Sc1ccc2c(/C=C/c3ccccn3)n[nH]c2c1` [axitinib], the response rate in data set [1] is recorded as ~ 19%.
